According to patent US9345694B2, “Compounds for enhancing arginase activity and methods of using same” (Cornell Research Foundation, Inc., priority 2006, dated 2016):

Tests used:
[1] = test system: myelin-associated glycoprotein (MAG) inhibition in P7 rat cerebellar neurons; test: MAG inhibition analysis, neurite outgrowth of P7 rat cerebellar neurons on MAG-overexpressing CHO cells, post-treatment; assay type: cell-based; conditions: 10 nM and 40 nM, 24 h in culture, CHO-MAG vs control CHO cells
Procedure: Compounds were tested for their ability to overcome myelin-associated glycoprotein (MAG) inhibition in P7 rat cerebellar neurons.
In experiments performed in the Roman Giger laboratory at the University of Rochester School of Medicine and Dentistry, twelve compounds were tested, using the materials and methods described by Venkatesh, et al., J Neurosci.
The twelve compounds were tested in two different dilutions (10 nM and 40 nM final concentration).
MAG-overexpressing CHO cells and control CHO feeder layers were used in the assay. All experiments were done with Percoll purified P7 rat cerebellar neurons. The twelve compounds were tested in a “post-treatment” manner. Post-treatment refers to administering the compounds after the neurons were plated.
After 24 h in culture, cells were fixed and stained with TuJ1 (cells with neurites longer than 1 cell body diameter were quantified). Untreated cells (first column of FIGS. 11 and 12) and DMSO only (second column of FIGS. 11 and 12) were used as a negative controls. RHO-kinase inhibitor Y27632 (15 microM) (third column of FIGS. 11 and 12) was used as a positive control. All experiments have been repeated 3-5 times independently.
In FIGS. 11 and 12, there are two bars for each compound tested.

Arginase I protein [2] = conditions: Cai et al., cited from earlier work
[3] = test system: myelin-associated glycoprotein (MAG) inhibition in p5 rat cerebellar neurons; test: MAG inhibition analysis, neurite outgrowth of p5 rat cerebellar neurons on MAG-expressing CHO cells, direct addition or priming; assay type: cell-based; conditions: priming overnight at 20 μM, then plated on MAG-expressing CHO cells
Procedure: Compounds were tested for their ability to overcome myelin-associated glycoprotein (MAG) inhibition in primary rat neurons. […] In a first experiment, the twelve compounds were tested for their ability to overcome inhibition by MAG in culture. The compounds were tested for their ability to inhibit neurite outgrowth of MAG-expressing CHO cells. Cerebellar neurons were cultured on MAG-expressing CHO cells and neurite length is compared to neurons growing on control CHO cells, not expressing MAG. The cells were assessed for their ability to overcome MAG inhibition when added directly to the cultures at a range of concentrations from 2-20 μM. Neurons were plated at a density of about 10,000 neurons per well of an 8-well culture dish containing a monolayer of either MAG-expressing or control CHO cells. The co-cultures were, incubated for 16-18 h and then immunostained for βIII tubulin. Neurite outgrowth was quantified as previously described (Mukhopadhyay et al., 1994). […] At least 400 neurons were measured in each assay and the experiment was carried out at least twice.

Arginase I protein [4] = test: Western blotting and immunostaining for Arginase I protein in treated neurons; assay type: cell-based, rat; conditions: neurons treated at 20 μM for 18 hours
Procedure: FIG. 15. Western blot and immunostaining results for arginase I protein. Neurons were treated with, daidzein (20 μM), methoxyvone (5 μM) or lanzoprazole (20 μM) for 18 hours and were then lysed and subjected to gel electrophoresis, followed by western blotting and immunostaining for Arginase I protein. As a positive control, neurons were treated with 1 mM db cAMP.
In a second experiment, the twelve compounds were tested for their ability to upregulate arginase I protein. Neurons were treated with, daidzein (20 μM), methoxyvone (5 μM) or lanzoprazole (20 μM) for 18 hours and were then lysed and subjected to gel electrophoresis, followed by western blotting and immunostaining for Arginase I protein. As a positive control, neurons were treated with 1 mM db cAMP (FIG. 15). Db-cAMP was previously shown to increased Arginase I protein 3-fold as described by Cai, et a., Neuron. 2002 Aug. 15; 35(4):711-9.

SMILES	effect on releasing MAG inhibition [1]	also measured
CC(=O)Nc1ccc(O)cc1 [Acetaminophen, reference compound]	no effect	–
CCCC(=O)Nc1ncnc2c1ncn2[C@@H]1O[C@@H]2COP(=O)(O)O[C@H]2[C@H]1OC(=O)CCC [Db-cAMP]	–	increase of Arginase I protein (Arginase I protein [2]; previously shown, Neuron 2002): 3 fold; Arginase I up-regulation (Arginase I protein [2]; shown previously, 2002): up-regulated
Cc1c(OCC(F)(F)F)ccnc1C[S+]([O-])c1nc2ccccc2[nH]1 (stereo not shown) [Lanzoprazole, Lansoprazole, reference compound]	–	ability to overcome inhibition by MAG (neurite outgrowth) [3]: overcome inhibition by MAG completely; Arginase I protein level (Arginase I protein [4]): up-regulated
O=c1c(-c2ccc(O)cc2)coc2cc(O)ccc12 [Daidzein]	no effect	ability to overcome inhibition by MAG (neurite outgrowth) [3]: overcome inhibition by MAG completely; Arginase I protein level (Arginase I protein [4]): up-regulated
COC(=O)Nc1nc2ccc(Sc3ccccc3)cc2[nH]1 [Fenbendazole, reference compound]	most promising	–
COc1ccc2c(c1)OCc1c-2oc2cc(OC)ccc12 [Dehydrovariabilin]	most promising	–
Oc1cc(O)cc(/C=C/c2ccccc2)c1 [Pinosylvin]	most promising	–
COc1ccc(/C=C/c2cc(O)cc(O)c2)cc1 [Resveratol 4-methyl ether]	no effect	–
COc1ccc(C[C@H]2NC[C@H](O)[C@H]2OC(C)=O)cc1 [Anisomycin, reference compound]	most promising	–
O=C(/C=C/c1ccc(O)c(O)c1)OCCc1ccccc1 [CAPE, Phenethyl caffeate]	no effect	–
COc1cc(OC)c2c(=O)c(-c3ccc4c(c3)OCO4)coc2c1 [Derrustone]	no effect	–
CC(=O)Oc1cc(OC(C)=O)c2c(c1)O[C@H](c1ccc(OC(C)=O)c(OC(C)=O)c1)[C@H](OC(C)=O)C2 [epicatechin pentaacetate, Epicatechin pentaacetate]	no effect	–
